Measured values from patent publication US6552014B2, “Methods of inhibiting platelet activation with selective serotonin reuptake inhibitors” (HeartDrug Research, L.L.C., priority 1999, dated 2003).

System: P-selectin
Assay: Whole blood flow cytometry
Type: cell-based, human
Settings: for P-Selectin (% +), % of cell positivity: Whole Blood
Text: For ex vivo assessment of the SSRIs effect on a PAM, a level of a PAM can be assessed by flow cytometry by first obtaining a sample that comprises platelets and then contacting the sample with a platelet activation agonist, such as phorbol myristate acetate (PMA), ADP (adenosine diphosphate), thrombin, collagen, and/or TRAP (thrombin receptor activating peptide), under conditions suitable for activation of platelets in the sample. The sample is in contact with the agonist preferably for a period of time effective to maximally activate the platelets. […] Then one contacts or stains the samples with a composition that comprises an anti-PAM antibody e.g., having a fluorescent label, preferably in an amount in excess of that required to bind the PAM expressed on the platelets, under conditions suitable for the formation of labeled complexes between the anti-PAM antibody and activated platelets. Then the formation of the complex in the sample is determined (detected or measured).
Four cc of blood was collected in a tube, containing 2 cc of acid-citrate-dextrose (ACD) (7.3 g citric acid, 22.0 g sodium citrate×2H2O and 24.5 glucose in a total amount of 1000 mL distilled water) and mixed well. The buffer, TBS (10 mM Tris, 0.15 M NaCl, pH 7.4) and the following fluorescein isothiocyanate (FITC) conjugated monoclonal antibodies (PharMingen, San Diego, Calif. USA, and DAKO, Calif., USA) were removed from a refrigerator and allowed to warm at room temperature (RT): CD41 (IIb/IIIa), CD31 (PECAM-1), CD62p (P-selectin), CD51/61 (Vitronectin receptor). Six amber tubes (1.25 ml) were obtained and marked. One Eppendorf tube (1.5 ml) was labeled with “Dill WB”, Patient ID #, Initial and Date. The amber tubes and Eppendorf tube were placed in the rack. […] of TBS buffer was pipetted to the labeled Eppendorf tube. The patient's whole blood tube was inverted gently twice to mix. 50 μl of whole blood was pipetted to the “Dill WB” labeled Eppendorf tube. The Eppendorf tube was capped and the diluted whole blood was mixed by inverting the Eppendorf tube gently two times 50 μl of diluted whole blood was pipetted to each amber tube. 5 μl of appropriate antibody was pipetted to the bottom of the corresponding amber tube. The tubes were covered with aluminum foil and incubated at 4° C. for 30 minutes. After incubation, 400 μl of 2% buffered paraformaldehyde was added. To prepare 2% Paraformaldehyde:Dilute 1 part 10% paraformaldehyde with 4 parts TBS. This solution was stored at 4° C. for up to one week. The amber tubes were closed with a lid tightly and stored in a refrigerator at 4° C. until the flow cytometric analysis. The samples are analyzed on a Becton Dickinson FACScan flow cytometer. The instrument is set up to measure forward light scatter (FSC), and FITC fluorescence. All parameters are collected using four decade logarithmic amplification.
The data in table 1 was obtained using the methods described herein, and in particular, in Examples 1 and 2. The levels of various PAMs were assess from samples of human volunteers. […] Baseline levels of the PAMs were also obtained (without exposure to sertraline or NDMS).

N[C@H]1CC[C@@H](c2ccc(Cl)c(Cl)c2)c2ccccc21 [Desmethyl sertraline, N-desmethylsertraline]
P-Selectin (% +), % of cell positivity (healthy volunteers, desmethylsertraline 31.1 ng/ml): 1.2%
P-Selectin (% +), % of cell positivity (healthy volunteers, desmethylsertraline 64.2 ng/ml): 3.3%
P-Selectin (% +), % of cell positivity (healthy volunteers, desmethylsertraline 143 ng/ml): 0.4%
P-Selectin (% +), % of cell positivity (post-angioplasty patient on aspirin, desmethylsertraline 31.1 ng/ml): 10.68%
P-Selectin (% +), % of cell positivity (post-angioplasty patient on aspirin, desmethylsertraline 64.2 ng/ml): 8.04%
P-Selectin (% +), % of cell positivity (post-angioplasty patient on aspirin, desmethylsertraline 143 ng/ml): 9.92%
P-selectin expression (FIG. 4), in words (whole blood, post-angioplasty patient, increasing concentrations): striking decreases in expression
